{"source": "paper PMC9320886", "about": "“Daily Intraperitoneal Administration of Rosiglitazone Does Not Improve Lung Function or Alveolarization in Preterm Rabbits Exposed to Hyperoxia” (Pharmaceutics, 2022)", "key": {"[1]": {"assay": "lung tissue binding by equilibrium dialysis", "type": "in vitro ADME", "details": "preterm rabbit lung homogenate, 4 h, 37 °C", "method": "In vitro lung tissue binding was also determined by equilibrium dialysis as described above. Preterm rabbit lungs (New Zealand White, BIOIVT) were homogenized using a Precellys tissue homogenizer (Bertin instruments, Montigny-le-Bretonneux, France). Precellys lysing vials (CK28-R, Bertin instruments) were filled with lung and buffer according to the following proportion: 1 g of tissue and 5 mL of ice-cold PBS (dilution 1:6). At the end of the homogenization process, a pool of lung homogenate was prepared mixing equal amount of homogenate from three different donors. Test compounds and the positive control were diluted in the pooled lung homogenate to a final concentration of […] and then dispensed into the red chamber of the RED device inserts. PBS was dispensed into the other side. Upon completion of 4 h of incubation (37 °C under shaking), equal aliquots were removed from each chamber and matrix matched with even volumes of lung homogenate or buffer for LC-MS/MS analyses.\nFree and Bound percentages of the compounds were calculated as follows:(3) %Free=Area buffer sample/Area lung homogenate sample×100 (4) % Bound=100−%Free"}, "[2]": {"assay": "pharmacokinetic profiling in preterm rabbits", "type": "in vivo", "details": "rabbit", "method": "A total of 30 preterm rabbits with a GA of 28 days were featured in the pharmacokinetic study. […] Surviving pups were randomized to either receive an intratracheal (IT, local delivery, n = 15) or intraperitoneal (IP, systemic delivery, n = 15) dose of 1 mg/kg of RGZ. For IP injections, RGZ (10 mg/mL in DMSO) was dissolved in H2O + 10% Tween-80 at 0.4 mg/mL and then injected in the right flank based on the pups’ body weight. For IT injections, RGZ (50 mg/mL in DMSO; Merck KGaA) was dissolved in 80 mg/mL of Poractant alfa (Curosurf, Chiesi Farmaceutici, Parma, Italy) at 0.4 mg/mL; the injection volume was based on the pups’ body weight (2.5 mL/kg), as previously described.\nBefore sample collection, all pups were euthanized with a pentothal sodium overdose. All samples were stored at −20 °C until analysis.\nBioanalysis and quantification were performed using a fit-for-purpose LC/MS/MS method developed internally (LC and MS conditions already described in Section 2.2). Plasma and lung homogenate samples (lungs were homogenized with a water/acetonitrile 50/50 mixture) were extracted by means of protein precipitation with 3 volumes of acetonitrile (Sigma-Aldrich Co, St. Louise, MO, USA), and the supernatant was directly injected into the LC/MS/MS system.\nThe plasma and lung concentrations of RGZ were determined using a calibration curve prepared in the corresponding blank rabbit matrix (range of calibration: 2–500 ng/mL for plasma; 12–6000 ng/g for lungs) and the accuracy of the quantitation was verified using quality controls prepared in the same matrix and back-calculated on the curve.\nPharmacokinetic parameters were calculated by non-compartmental analysis using Phoenix WinNonlin (Certara L.P., Princeton, NJ, USA). The following PK parameters were calculated: Tmax, time of the maximum concentration; Cmax, maximum concentration; t1/2, half-life (calculable only in case of well-defined elimination phase); AUClast, area under the curve up to the last time point."}, "[3]": {"tested_on": "PPARγ", "assay": "target engagement (TE%) evaluation from unbound plasma concentration and EC50", "method": "In a subsequent experimental session, we investigated the pulmonary outcomes of a higher intraperitoneal RGZ dose. To define the RGZ dose, a target engagement (TE%) evaluation was performed based on the unbound plasma and EC50 values for RGZ previously determined in vitro. […] TE% at each time point was calculated according to the following formula."}, "[4]": {"assay": "pharmacokinetic profiling in preterm rabbits", "type": "in vivo, rabbit"}, "[5]": {"set-up": "method as in PMID 19484746", "details": "PND 13 mice, chow of nursing mice with 2.5–10 mg/kg of RGZ; cited from earlier work"}, "[6]": {"set-up": "method as in PMID 20729387", "details": "newborn mice, mothers received two antenatal doses of 3 mg/kg 48 and 72 h prior to delivery; cited from earlier work"}, "[7]": {"tested_on": "newborn rats", "set-up": "method as in PMID 19262292", "details": "single (24 h) and repeated (7 days) administration, 0.1–8 mg/kg; cited from earlier work"}, "[8]": {"tested_on": "newborn rats", "set-up": "method as in PMID 19262292", "details": "daily i.p. doses as low as 0.3 mg/kg; cited from earlier work"}, "[9]": {"tested_on": "premature rabbit pups with intraventricular hemorrhage", "set-up": "method as in PMID 34462350", "details": "twice-daily 0.1 mg/kg; cited from earlier work"}, "[10]": {"tested_on": "patients with type 2 diabetes", "details": "cited from earlier work"}, "[11]": {"details": "inhaled or intranasal, plasma, intratracheal 1 mg/kg"}, "[12]": {"details": "ip, plasma, intraperitoneal 1 mg/kg"}, "[13]": {"details": "rabbit, inhaled or intranasal, lung, intratracheal 1 mg/kg"}}, "note": "Where two headings read alike, the source gives them in different places."}
{"smiles": "CN(CCOc1ccc(CC2SC(=O)NC2=O)cc1)c1ccccn1", "note": "(centres unmarked) [RGZ, rosiglitazone]", "values": [{"measurement": "Lung Tissue Binding (%)", "setting": "[1]", "value": "94.2 ± 0.7", "unit": "%"}, {"measurement": "half-life", "setting": "[2]; inhaled or intranasal, lung, intratracheal 1 mg/kg", "value": 900, "unit": "min"}, {"measurement": "AUC(0-t)", "setting": "[2]; [11]", "value": 25800, "unit": "ng·h/mL"}, {"measurement": "Cmax", "setting": "[2]; [11]", "value": 1950, "unit": "ng/mL"}, {"measurement": "Tmax", "setting": "[2]; [11]", "value": 15, "unit": "min"}, {"measurement": "Cmax", "setting": "[2]; ip, lung, intraperitoneal 1 mg/kg", "value": 1020, "unit": "ng/g"}, {"measurement": "Cmax", "setting": "[2]; [12]", "value": 2440, "unit": "ng/mL"}, {"measurement": "Tmax", "setting": "[2]; [12]", "value": 15, "unit": "min"}, {"measurement": "Kp", "setting": "[2]; lung and plasma, ip, intraperitoneal 1 mg/kg, read-out: AUCLung/AUCPlasma", "value": 0.7}, {"measurement": "target engagement (TE%)", "setting": "[3]", "value": "40–60%"}, {"measurement": "target engagement (TE%)", "setting": "[3]; linear scaling model to intraperitoneal 10 mg/kg", "value": "> 90", "unit": "%"}, {"measurement": "target engagement (TE%)", "setting": "[3]; listed as rosiglitazone", "value": 50, "unit": "%"}, {"measurement": "detectability in plasma and lung", "setting": "[4]; intratracheal or intraperitoneal 1 mg/kg", "value": "detectable levels in both compartments up to 24 h"}, {"measurement": "time of peak", "setting": "[4]; plasma and lung tissue, irrespective of the administration method, 1 mg/kg", "value": 0.25, "unit": "h"}, {"measurement": "Cmax", "setting": "[4]; [13]", "value": 1070, "unit": "ng/g"}, {"measurement": "Tmax", "setting": "[4]; [13]", "value": 15, "unit": "min"}, {"measurement": "half-life", "setting": "[4]; rabbit, inhaled or intranasal, plasma, intratracheal 1 mg/kg", "value": 900, "unit": "min"}, {"measurement": "Tmax", "setting": "[4]; rabbit, ip, lung, intraperitoneal 1 mg/kg", "value": 15, "unit": "min"}, {"measurement": "AUC(0-t)", "setting": "[4]; rabbit, ip, plasma, intraperitoneal 1 mg/kg", "value": 29500, "unit": "ng·h/mL"}, {"measurement": "Kp", "setting": "[4]; rabbit, lung and plasma, inhaled or intranasal, intratracheal 1 mg/kg, read-out: AUCLung/AUCPlasma", "value": 0.7}, {"measurement": "concentration at 24 h", "setting": "[4]; rabbit, plasma and lung, ip, 24 h after intraperitoneal administration, 1 mg/kg, read-out: levels in plasma and lung", "value": "> 500", "unit": "ng/mL"}, {"measurement": "RGZ in the lung tissue", "setting": "[5]", "value": 90.7, "unit": "pg/g"}, {"measurement": "plasma levels", "setting": "[6]", "value": 350, "unit": "ng/mL"}, {"measurement": "serum cholesterol and triglycerides levels", "setting": "[7]", "value": "remained unchanged"}, {"measurement": "alveolarization", "setting": "[8]", "value": "enhanced"}, {"measurement": "surfactant synthesis (lamellar body count, SP-B and SP-C expression)", "setting": "[8]", "value": "significantly promoted"}, {"measurement": "myelination and neurological recovery", "setting": "[9]", "value": "improved"}, {"measurement": "plasma triglycerides, large- and medium-sized lipoproteins, low- and high-density cholesterol", "setting": "[10]; adult patients with type 2 diabetes and dyslipidemia", "value": "increases"}, {"measurement": "risk of heart failure and cardiovascular mortality", "setting": "[10]; diabetic patients", "value": "increases the risk"}]}
